Some test systems named below: OVCAR-4 ovarian; COLO 205 colon; K-562 leukemia; HCT-15 colon; NCI-H23 lung; NCI-H460 lung; M14 melanoma; SF-268 CNS; OVCAR-8 ovarian; SW-620 colon; U251 CNS; NCI/ADR-RES ovarian; MDA-MB-435.
Common to all, as to assay: NCI-60 cell line screen, 48 h

The structures appear in SMILES notation.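 In this assay, cells in 96-well plates receive the compound at five concentrations for 48 hours. Endpoints are linearly interpolated between the surrounding concentrations. TGI denotes the concentration required for complete inhibition of growth.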

For `NC(=O)c1cn(Cc2ccccc2)c(=O)n1Cc1ccccc1`, the TGI with OVCAR-4 ovarian, in the assay on COLO 205 colon, in the assay with K-562 leukemia, with HCT-15 colon, with NCI-H23 lung and with NCI-H460 lung was above 100 µM in each case. Also, the TGI with M14 melanoma, in the assay with SF-268 CNS, with OVCAR-8 ovarian, in the assay on SW-620 colon and in the assay on U251 CNS was above 100 µM each time.

As for `CC(=O)O[C@]12CCCCCC1C1(O)C(O)CCCCC12` (stereo not given in full), the TGI in the assay with OVCAR-4 ovarian, with COLO 205 colon, with K-562 leukemia, with HCT-15 colon, in the assay on NCI-H23 lung and with NCI-H460 lung was above 100 µM throughout. The TGI with M14 melanoma, in the assay with SF-268 CNS, with OVCAR-8 ovarian, in the assay on SW-620 colon and in the assay with U251 CNS was above 100 µM throughout.

For `COc1ccc2nc3cc(Cl)ccc3c(Sc3ccc(NC(C)=O)cc3)c2c1`, the TGI was above 52.6 µM with OVCAR-4 ovarian; above 34.2 µM in the assay on COLO 205 colon; above 100 µM in the assay on K-562 leukemia; above 33.5 µM with NCI-H23 lung; above 47 µM in the assay on NCI-H460 lung; above 38.5 µM in the assay on M14 melanoma. Further, the TGI in the assay on SF-268 CNS was above 40 µM; with OVCAR-8 ovarian it was above 21.1 µM; in the assay with SW-620 colon, above 22.3 µM; with U251 CNS, above 20.7 µM.

Regarding `Cc1ccc(NC(=O)C(=O)C2C(=O)NC(=O)NC2=O)cc1C`, the TGI with OVCAR-4 ovarian, with COLO 205 colon, with K-562 leukemia, in the assay with HCT-15 colon, in the assay on NCI-H23 lung and in the assay on NCI-H460 lung was above 100 µM in each case. Besides, the TGI with M14 melanoma, in the assay with SF-268 CNS, with OVCAR-8 ovarian, in the assay on SW-620 colon and with U251 CNS was above 100 µM in each case.

As for `O=C1c2ccccc2C(=O)N1C/C=N/NS(=O)(=O)c1ccc(Br)cc1`, the TGI with OVCAR-4 ovarian, in the assay on COLO 205 colon, in the assay on K-562 leukemia, in the assay on HCT-15 colon, in the assay with NCI-H23 lung and in the assay on NCI-H460 lung was above 100 µM each time. Besides, the TGI with M14 melanoma, in the assay with SF-268 CNS, in the assay on OVCAR-8 ovarian, in the assay with SW-620 colon and in the assay with U251 CNS was above 100 µM in each case.

With `O=c1cc(NNc2cccc(Cl)c2)[nH]c(=O)[nH]1`, the TGI in the assay on OVCAR-4 ovarian is above 100 µM; in the assay on COLO 205 colon, above 100 µM; in the assay on K-562 leukemia, above 100 µM; in the assay on HCT-15 colon, 31.4 µM; in the assay on NCI-H23 lung, above 100 µM; in the assay on NCI-H460 lung, above 100 µM. The TGI is 37.7 µM with M14 melanoma; above 100 µM in the assay with SF-268 CNS; above 100 µM in the assay with NCI/ADR-RES ovarian; 33 µM in the assay on SW-620 colon; above 100 µM with U251 CNS.

Consider `COc1ccc(/C(Cl)=C(\C#N)c2ccc(OC)c(OC)c2)cc1OC`, for which the TGI in the assay with MDA-MB-435, with OVCAR-4 ovarian, in the assay with COLO 205 colon, with K-562 leukemia, with HCT-15 colon and in the assay with NCI-H23 lung was above 100 µM throughout. Moreover, the TGI in the assay on NCI-H460 lung, in the assay with M14 melanoma, in the assay with SW-620 colon and in the assay with U251 CNS was above 100 µM throughout.

Regarding `COc1cc(-c2nnc3n2NC=C(C(=O)O)S3)cc(OC)c1OC`, the TGI in the assay on OVCAR-4 ovarian was above 87.5 µM; in the assay with COLO 205 colon it was above 70.3 µM; in the assay with K-562 leukemia, above 63 µM; in the assay with HCT-15 colon, above 67.5 µM; in the assay on NCI-H23 lung it was above 100 µM; with NCI-H460 lung, above 100 µM. Besides, the TGI with M14 melanoma was above 100 µM; in the assay with SF-268 CNS it was above 100 µM; in the assay with OVCAR-8 ovarian, above 100 µM; in the assay with SW-620 colon, above 62 µM; in the assay with U251 CNS it was above 100 µM.

For the compound `CC(NC(=O)c1c(O)[nH]c(=S)[nH]c1=O)c1ccc([N+](=O)[O-])cc1` (stereo not given), the TGI in the assay with MDA-MB-435, in the assay on OVCAR-4 ovarian, in the assay with COLO 205 colon, in the assay with K-562 leukemia, in the assay on HCT-15 colon and with NCI-H23 lung was above 100 µM each time. The TGI in the assay on NCI-H460 lung, in the assay on M14 melanoma, in the assay with SF-268 CNS, with SW-620 colon and with U251 CNS was above 100 µM each time.

For `C=C1CC[C@H]2C(=O)OC(c3ccoc3)C[C@]2(C)C/C=C\C=C/1C(=O)OC` (stereo not given in full), the TGI with OVCAR-4 ovarian, in the assay with COLO 205 colon, in the assay on K-562 leukemia, in the assay on HCT-15 colon, with NCI-H23 lung and in the assay with NCI-H460 lung was above 25 µM each time. The TGI with M14 melanoma, in the assay on OVCAR-8 ovarian, in the assay with NCI/ADR-RES ovarian, with SW-620 colon and in the assay on U251 CNS was above 25 µM in each case.

With `C1COCCSC2=C(SCCO1)SC(=C1SC3=C(SCCOCCOCCS3)S1)S2`, the TGI with OVCAR-4 ovarian, in the assay on COLO 205 colon, with K-562 leukemia, in the assay on HCT-15 colon, with NCI-H23 lung and with NCI-H460 lung was above 100 µM each time. Further, the TGI in the assay with M14 melanoma, in the assay with SF-268 CNS, in the assay with OVCAR-8 ovarian, with SW-620 colon and in the assay with U251 CNS was above 100 µM throughout.

Consider `O=C(NCCN1CCOCC1)c1ccc(I)cc1`, for which the TGI in the assay with OVCAR-4 ovarian, in the assay on K-562 leukemia, with HCT-15 colon, in the assay on NCI-H23 lung, with NCI-H460 lung and in the assay on M14 melanoma was above 100 µM throughout. Besides, the TGI in the assay on SF-268 CNS, with OVCAR-8 ovarian, with NCI/ADR-RES ovarian, with SW-620 colon and in the assay on U251 CNS was above 100 µM in each case.

Values taken from PubChem BioAssay (NCI).
